Data as given in PubChem BioAssay AID1963437 (Molecular Pharmacology Branch, DTP, NCI, 2024).
“And” between values parts separate entries of the source, which are not always exact repeats. Equal entries are not always repeated.

Test system: OVCAR-8 complex spheroid, growth inhibition
Experiment: Anticancer human tumor OVCAR-8 cell line growth inhibition [Asc];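 further: spheroids exposed to agents for 7 days before readout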;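 on viability, T/C: percent viability relative to DMSO vehicle wells taken as 100%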
Settings: for viability, T/C: stronger effect = lower value
Summary of the method: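 Complex solid-tumor spheroids incorporating human endothelial and mesenchymal stem cells received single agents or combinations over half-log dilution ranges anchored to clinical Cmax.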

`O=C(c1ccc(F)c(F)c1Nc1ccc(I)cc1F)N1CC(O)([C@@H]2CCCCN2)C1` + Cc1c(S(C)(=O)=O)c(-c2cc(F)cc(N3CCN(c4ccc(NS(=O)(=O)c5ccc(NC(CCN6CCC(C(=O)OCCCP(=O)(O)O)CC6)CSc6ccccc6)c(S(=O)(=O)C(F)(F)F)c5)cc4)CC3)c2)c(-c2ccc(Cl)cc2)n1C(C)C gave an IC50 (curve of first compound, second compound 0.0316 µM) of over 1000 nM, an IC50 (curve of first compound, second compound 0.1 µM) of over 1000 nM and an IC50 (curve of first compound, second compound 0.316 µM) of over 1000 nM. For the same molecule, the IC50 (curve of first compound, second compound 1 µM) was over 1000 nM, the IC50 (curve of first compound, second compound 3.16 µM) was over 1000 nM and the IC50 (curve of first compound, second compound 10 µM) was over 1000 nM. For the same molecule, the viability, T/C (second compound 0.0316 µM, first compound 0.00316 µM) was 103%, the viability, T/C (second compound 0.0316 µM, first compound 0.01 µM) was 114% and the viability, T/C (second compound 0.0316 µM, first compound 0.0316 µM) was 140%. It also gave a viability, T/C (second compound 0.0316 µM, first compound 0.1 µM) of 173%, a viability, T/C (second compound 0.0316 µM, first compound 0.316 µM) of 234% and a viability, T/C (second compound 0.0316 µM, first compound 1 µM) of 135%. It also gave a viability, T/C (second compound 0.1 µM, first compound 0.00316 µM) of 110%, a viability, T/C (second compound 0.1 µM, first compound 0.01 µM) of 134% and a viability, T/C (second compound 0.1 µM, first compound 0.0316 µM) of 160%. The viability, T/C (second compound 0.1 µM, first compound 0.1 µM) was 199%, the viability, T/C (second compound 0.1 µM, first compound 0.316 µM) was 254% and the viability, T/C (second compound 0.1 µM, first compound 1 µM) was 122%. The viability, T/C (second compound 0.316 µM, first compound 0.00316 µM) was 115%, the viability, T/C (second compound 0.316 µM, first compound 0.01 µM) was 115% and the viability, T/C (second compound 0.316 µM, first compound 0.0316 µM) was 157%. It also gave a viability, T/C (second compound 0.316 µM, first compound 0.1 µM) of 204%, a viability, T/C (second compound 0.316 µM, first compound 0.316 µM) of 244% and a viability, T/C (second compound 0.316 µM, first compound 1 µM) of 139%. For the same molecule, the viability, T/C (second compound 1 µM, first compound 0.00316 µM) was 129%, the viability, T/C (second compound 1 µM, first compound 0.01 µM) was 157% and the viability, T/C (second compound 1 µM, first compound 0.0316 µM) was 195%. For the same molecule, the viability, T/C (second compound 1 µM, first compound 0.1 µM) was 228%, the viability, T/C (second compound 1 µM, first compound 0.316 µM) was 258% and the viability, T/C (second compound 1 µM, first compound 1 µM) was 126%. For the same molecule, the viability, T/C (second compound 3.16 µM, first compound 0.00316 µM) was 125%, the viability, T/C (second compound 3.16 µM, first compound 0.01 µM) was 137% and the viability, T/C (second compound 3.16 µM, first compound 0.0316 µM) was 197%. It also gave a viability, T/C (second compound 3.16 µM, first compound 0.1 µM) of 228%, a viability, T/C (second compound 3.16 µM, first compound 0.316 µM) of 253% and a viability, T/C (second compound 3.16 µM, first compound 1 µM) of 99.5%. The viability, T/C (second compound 10 µM, first compound 0.00316 µM) was 154%, the viability, T/C (second compound 10 µM, first compound 0.01 µM) was 141% and the viability, T/C (second compound 10 µM, first compound 0.0316 µM) was 183%. For the same molecule, the viability, T/C (second compound 10 µM, first compound 0.1 µM) was 224%, the viability, T/C (second compound 10 µM, first compound 0.316 µM) was 234% and the viability, T/C (second compound 10 µM, first compound 1 µM) was 107%.
With `CCN1CCN(Cc2ccc(Nc3ncc(F)c(-c4cc(F)c5nc(C)n(C(C)C)c5c4)n3)nc2)CC1` + CCN1C(C(=O)NC23CCC(C(=O)O)(CC2)CC3)C(c2cccc(Cl)c2F)C2(C(=O)Nc3cc(Cl)ccc32)C12CCCCC2 the IC50 (curve of first compound, second compound 0.00949 µM) was over 1000 nM, the IC50 (curve of first compound, second compound 0.03 µM) was over 1000 nM and the IC50 (curve of first compound, second compound 0.0949 µM) was over 1000 nM. It also gave an IC50 (curve of first compound, second compound 0.3 µM) of over 1000 nM, an IC50 (curve of first compound, second compound 0.949 µM) of over 1000 nM and an IC50 (curve of first compound, second compound 3 µM) of over 1000 nM. The viability, T/C (second compound 0.00949 µM, first compound 0.00316 µM) was 85.2%, the viability, T/C (second compound 0.00949 µM, first compound 0.01 µM) was 89.5% and the viability, T/C (second compound 0.00949 µM, first compound 0.0316 µM) was 80.1%. For the same molecule, the viability, T/C (second compound 0.00949 µM, first compound 0.1 µM) was 100%, the viability, T/C (second compound 0.00949 µM, first compound 0.316 µM) was 90.2% and the viability, T/C (second compound 0.00949 µM, first compound 1 µM) was 107%. The viability, T/C (second compound 0.03 µM, first compound 0.00316 µM) was 98.1%, the viability, T/C (second compound 0.03 µM, first compound 0.01 µM) was 84.4% and the viability, T/C (second compound 0.03 µM, first compound 0.0316 µM) was 102%. For the same molecule, the viability, T/C (second compound 0.03 µM, first compound 0.1 µM) was 89.4%, the viability, T/C (second compound 0.03 µM, first compound 0.316 µM) was 97.5% and the viability, T/C (second compound 0.03 µM, first compound 1 µM) was 117%. It also gave a viability, T/C (second compound 0.0949 µM, first compound 0.00316 µM) of 79.9%, a viability, T/C (second compound 0.0949 µM, first compound 0.01 µM) of 92.2% and a viability, T/C (second compound 0.0949 µM, first compound 0.0316 µM) of 89.8%. It also gave a viability, T/C (second compound 0.0949 µM, first compound 0.1 µM) of 98.6%, a viability, T/C (second compound 0.0949 µM, first compound 0.316 µM) of 95.6% and a viability, T/C (second compound 0.0949 µM, first compound 1 µM) of 126%. The viability, T/C (second compound 0.3 µM, first compound 0.00316 µM) was 89.7%, the viability, T/C (second compound 0.3 µM, first compound 0.01 µM) was 82.2% and the viability, T/C (second compound 0.3 µM, first compound 0.0316 µM) was 93.1%. The viability, T/C (second compound 0.3 µM, first compound 0.1 µM) was 93.7%, the viability, T/C (second compound 0.3 µM, first compound 0.316 µM) was 114% and the viability, T/C (second compound 0.3 µM, first compound 1 µM) was 121%. For the same molecule, the viability, T/C (second compound 0.949 µM, first compound 0.00316 µM) was 97.9%, the viability, T/C (second compound 0.949 µM, first compound 0.01 µM) was 86.6% and the viability, T/C (second compound 0.949 µM, first compound 0.0316 µM) was 87.5%. The viability, T/C (second compound 0.949 µM, first compound 0.1 µM) was 111%, the viability, T/C (second compound 0.949 µM, first compound 0.316 µM) was 90.6% and the viability, T/C (second compound 0.949 µM, first compound 1 µM) was 126%. For the same molecule, the viability, T/C (second compound 3 µM, first compound 0.00316 µM) was 98.5%, the viability, T/C (second compound 3 µM, first compound 0.01 µM) was 112% and the viability, T/C (second compound 3 µM, first compound 0.0316 µM) was 117%. It also gave a viability, T/C (second compound 3 µM, first compound 0.1 µM) of 118%, a viability, T/C (second compound 3 µM, first compound 0.316 µM) of 123% and a viability, T/C (second compound 3 µM, first compound 1 µM) of 119%.
With `CCN1CCN(Cc2ccc(Nc3ncc(F)c(-c4cc(F)c5nc(C)n(C(C)C)c5c4)n3)nc2)CC1` the viability, T/C (compound 0.00316 µM) was 81.5% and 87.7% and 87.9%, the viability, T/C (compound 0.01 µM) was 101% and 93.5% and 90.3% and the viability, T/C (compound 0.0316 µM) was 93.1% and 93.5% and 107%. The viability, T/C (compound 0.1 µM) was 104% and 84.9% and 103%, the viability, T/C (compound 0.316 µM) was 98.6% and 100% and 98.5% and the viability, T/C (compound 1 µM) was 125% and 105% and 129%. It also gave an IC50 (curve of compound) of over 1000 nM.
